According to PMC11599207, “Identification of IspD as a novel target for tuberculosis treatment using compound M6” (Frontiers in Microbiology, 2024):

Target: T1, IspD (2-C-methyl-D-erythritol 4-phosphate cytidylyltransferase) (Mycolicibacterium smegmatis, UniProt A0R560)
T1 construct: recombinant IspD from pET28a-ispD, His trap purified, approximately 26 kDa
T1 sequence (A0R560 1-222): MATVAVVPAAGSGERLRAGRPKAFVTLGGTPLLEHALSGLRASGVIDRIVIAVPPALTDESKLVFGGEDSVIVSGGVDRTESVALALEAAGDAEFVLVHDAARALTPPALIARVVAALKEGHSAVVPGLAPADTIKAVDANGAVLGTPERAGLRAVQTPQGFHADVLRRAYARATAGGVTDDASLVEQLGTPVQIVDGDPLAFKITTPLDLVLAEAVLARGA
Test: ammonium molybdate pyrophosphate absorbance assay; double-reciprocal kinetics
Type: biochemical

Row | SMILES | ammonium molybdate pyrophosphate absorbance assay; double-reciprocal kinetics
1 | Nc1ccn([C@@H]2O[C@H](COP(=O)(O)OP(=O)(O)OP(=O)(O)O)[C@@H](O)[C@H]2O)c(=O)n1 [CTP] | M6 acts as a non-competitive inhibitor of the substrate CTP (Figure 3D)
2 | C[C@](O)(CO)[C@H](O)COP(=O)(O)O [MEP, 2-C-methyl-D-erythritol 4-phosphate] | indicating that M6 acts as a non-competitive inhibitor of the substrate MEP
